Experiment [1] concerns U937 cells. Nature of the experiment: Cell viability assay (Cell-Titer-Glo) in U937 cells. Format: cell-based. Conditions: test compounds 1 nM to 1 μM. The procedure:
(§1) Cell viability assays were run using standard protocols known to those of skill in art. Cells were plated in 96 well plates at the density of 3,000-10,000 cells per well. Twenty four hours later, cells were treated with increasing concentration of test compounds (1 nM to 1 μM). After another 48 hour, cell survival was measured using Cell-Titer-Glo® reagent (Promega) following the protocol provided by the manufacture. The IC50 value was determined as the concentration of test compound that kills 50% of the cell population.
(§2) Cell viability data generated according to the protocol described above was generated for representative compounds in A2058 and U937 cells. The compounds shown in Table 1 were prepared by the methods described herein for structurally similar compounds. The reference compound was a synthetic diazonamide analog having the structure: […]

In experiment [2] the test system is A2058 cells. Nature of the experiment: Cell viability assay (Cell-Titer-Glo) in A2058 cells. Format: cell-based. Conditions: Homo sapiens, 48 hour treatment, test compounds 1 nM to 1 μM. Here is the method:
as §1, §2

Where [3] appears, read: Homo sapiens, U-937, 48 hour treatment.

For orientation: IC50 means the point on the concentration scale where inhibition reaches its midpoint. Read a low IC50 as higher potency. On to `CC(C)[C@H](O)C(=O)N[C@H]1Cc2ccc(O)c(c2)[C@]2(CNc3ccccc32)C2=C(c3nc(CO)co3)N=C(O2)[C@H](C(C)C)NC1=O` (single isomer, unassigned) [Compound 102], for which the results for the IC50 in experiment [1] (setting [3]) and in experiment [2] were 225 nM and 492 nM, respectively. For `CC(C)[C@H](O)C(=O)NC1Cc2ccc3c(c2)C2(C4=C(c5nc(COC(=O)C(C)(C)C)co5)N=C(O4)[C@H](C(C)C)NC1=O)c1ccccc1N[C@H]2O3` (stereo partly shown) [Compound 21] the same measures were 20 nM and 40 nM. For `CC(=O)OCc1coc(-c2nc3oc2C24c5ccccc5N[C@H]2Oc2ccc(cc24)C[C@H](NC(=O)[C@@H](O)C(C)C)C(=O)N[C@H]3C(C)C)n1` (stereo partly shown) [Compound 22] the same measures were 19 nM and 52 nM.

Regarding `CC(C)[C@H](O)C(=O)NC1Cc2ccc3c(c2)C2(C4=C(c5nc(COC=O)co5)N=C(O4)[C@H](C(C)C)NC1=O)c1ccccc1N[C@H]2O3` (stereo partly shown) [Compound 23], the IC50 in experiment [1] (setting [3]) came out at 21 nM; in experiment [2], 57 nM.

Turning to `COC(=O)OCc1coc(-c2nc3oc2C24c5ccccc5N[C@H]2Oc2ccc(cc24)CC(NC(=O)[C@@H](O)C(C)C)C(=O)N[C@H]3C(C)C)n1` (stereo partly shown) [Compound 24], the IC50 in experiment [1] (setting [3]) was found to be 19.7 nM; in experiment [2], 26 nM. For `CC(C)[C@H](O)C(=O)N[C@H]1Cc2ccc3c(c2)C2(C4=C(c5nc(COP(=O)(O)O)co5)N=C(O4)[C@H](C(C)C)NC1=O)c1ccccc1N[C@H]2O3` (stereo partly shown) [Compound 25] the same measures were 36.9 nM and 70.8 nM. Turning to `COC(=O)OCc1coc(-c2nc3oc2C24c5ccccc5N[C@H]2Oc2ccc(cc24)CC(NC(=O)[C@@H](O)C(C)C)C(=O)N[C@H]3C(C)(C)C)n1` (stereo partly shown) [Compound 26], the figures for the IC50 in experiment [1] (setting [3]) and in experiment [2] were 2.88 nM and 3.33 nM, respectively. In the same order, the values of `CC(C)[C@@H]1NC(=O)C(NC(=O)[C@@H](O)C(C)(C)C)Cc2ccc3c(c2)C2(C4=C(c5nc(CO)co5)N=C1O4)c1ccccc1N[C@H]2O3` (stereo partly shown) [Compound 27] are 98 nM and 112 nM. With `CC(C)C[C@H](O)C(=O)N[C@H]1Cc2ccc3c(c2)C2(C4=C(c5nc(CO)co5)N=C(O4)[C@H](C(C)C)NC1=O)c1ccccc1N[C@H]2O3` (stereo partly shown) [Compound 28], the IC50 is 112 nM in experiment [1] (setting [3]) and 143 nM in experiment [2]. For the molecule `CC(O)c1coc(-c2nc3oc2C24c5ccccc5N[C@H]2Oc2ccc(cc24)C[C@H](NC(=O)[C@@H](O)C(C)C)C(=O)N[C@H]3C(C)C)n1` (stereo partly shown) [Compound 29], the IC50 is 59 nM in experiment [1] (setting [3]) and 119 nM in experiment [2].

Consider `CC(=O)c1coc(-c2nc3oc2C24c5ccccc5N[C@H]2Oc2ccc(cc24)C[C@H](NC(=O)[C@@H](O)C(C)C)C(=O)N[C@H]3C(C)C)n1` (stereo partly shown) [Compound 30], for which the results for the IC50 in experiment [1] (setting [3]) and in experiment [2] were 13 nM and 60 nM, respectively.

For `CC(C)[C@H](O)C(=O)N[C@H]1Cc2ccc3c(c2)C2(C4=C(c5nc(C(C)(C)O)co5)N=C(O4)[C@H](C(C)C)NC1=O)c1ccccc1N[C@H]2O3` (stereo partly shown) [Compound 31], the IC50 in experiment [1] (setting [3]) was 259 nM; in experiment [2] it was 602 nM. For `CNCc1coc(-c2nc3oc2C24c5ccccc5N[C@H]2Oc2ccc(cc24)C[C@H](NC(=O)[C@@H](O)C(C)C)C(=O)N[C@H]3C(C)C)n1` (stereo partly shown) [Compound 32] the same measures were > 1000 nM and > 1000 nM. For `CC(C)[C@H](O)C(=O)N[C@H]1Cc2ccc3c(c2)C2(C4=C(c5nc(CN)co5)N=C(O4)[C@H](C(C)C)NC1=O)c1ccccc1N[C@H]2O3` (stereo partly shown) [Compound 33] the same measures were > 1000 nM and > 1000 nM. As to `COC(=O)NCc1coc(-c2nc3oc2C24c5ccccc5N[C@H]2Oc2ccc(cc24)C[C@H](NC(=O)[C@@H](O)C(C)C)C(=O)N[C@H]3C(C)C)n1` (stereo partly shown) [Compound 34], the values for the IC50 in experiment [1] (setting [3]) and in experiment [2] were 134 nM and 149 nM, respectively.

Molecule `COC(=O)c1coc(-c2nc3oc2[C@]24c5ccccc5NC2Oc2ccc(cc24)C[C@H](NC(=O)[C@@H](O)C(C)C)C(=O)N[C@H]3C(C)(C)C)n1` (stereo partly shown) [Compound 59] showed an IC50 in experiment [1] (48 hour treatment) of 69 nM. This counts as double-digit nanomolar.

The record behind these values is US8592469B2, “Diazonamide analogs” (Joyant Pharmaceuticals, Inc., priority 2012, dated 2013).
